According to publication PMC6915728 (Nature Communications, 2019):
Read-outs that look alike come from different tables or passages of the source.

Experiments:
[1] = tested on: bacterial species in which the gene showed activity; details: cited from earlier work
[2] = tested on: E. coli BW25113 overexpression strains (ASKA plasmids); assay: Minimum inhibitory concentration (MIC), serial broth dilution, single-gene overexpression strains vs empty-vector control; format: cell-based, Escherichia coli; details: MIC of overexpression strain / MIC of empty-plasmid control, broth dilution, MS medium, 100 µM IPTG, 30 °C, 20-24 h, OD600, 3 replicates
Summary of the method: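 E. coli overexpression strains grown in MS medium with chloramphenicol, induced with 100 µM IPTG for 1 h at 30 °C, then about half-million cells inoculated into 12-step AMP dilutions (typically 1.2-fold steps). OD600 read after 20–24 h at 30 °C with shaking; triplicate strains compared with empty-vector control.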

## KTKKKFLKKT [PXB, Polymyxin B, from Bacillus polymyxa, purchased from Sigma-Aldrich; disrupts cell membrane; cluster C1]
[1]; Acinetobacter baumannii, ref http://aac.asm.org/content/54/12/4971.full.pdf+html
  Gene that modulates bacterial susceptibility to the AMP: lpxA
[1]; Bordetella pertussis, ref http://www.ncbi.nlm.nih.gov/pmc/articles/PMC4136009/
  Gene that modulates bacterial susceptibility to the AMP: lgmA, IgmB, IgmC
[1]; Burkholderia genus, ref http://www.ncbi.nlm.nih.gov/pmc/articles/PMC3143681/, http://www.ncbi.nlm.nih.gov/pmc/articles/PMC1428139/
  Gene that modulates bacterial susceptibility to the AMP: waaF
[1]; Campylobacter jejuni, ref http://www.ncbi.nlm.nih.gov/pmc/articles/PMC3270987/
  Gene that modulates bacterial susceptibility to the AMP: eptC
[1]; Escherichia coli, Klebsiella pneumoniae, Pseudomonas aeruginosa, Kluyvera ascorbata, ref http://www.ncbi.nlm.nih.gov/pubmed/26603172, http://ac.els-cdn.com/S1473309915005332/1-s2.0-S1473309915005332-main.pdf?_tid=16a7f944-6944-11e6-8a9d-00000aab0f02&acdnat=1471965364_7f481026d1a49114e23adef4a6b4d1a9, https://www.ncbi.nlm.nih.gov/pmc/articles/PMC5119035/
  Gene that modulates bacterial susceptibility to the AMP: mcr1
[1]; Escherichia coli, Salmonella sp., Pseudomonas aeruginosa, ref https://ac.els-cdn.com/S0923250806000532/1-s2.0-S0923250806000532-main.pdf?_tid=eafe08ea-d0fa-11e7-b1a6-00000aacb35f&acdnat=1511516356_5b16dbb059dc1cc9bc53dd73456e437d
  Gene that modulates bacterial susceptibility to the AMP: etk
[1]; Escherichia coli, ref http://www.jbc.org/content/287/46/38778.full.pdf, http://www.jbc.org/content/early/2007/10/10/jbc.M706172200.full.pdf, https://onlinelibrary.wiley.com/doi/epdf/10.1111/j.1365-2958.2012.08154.x
  Gene that modulates bacterial susceptibility to the AMP: arnD
[1]; Helicobacter pylori, ref http://www.ncbi.nlm.nih.gov/pmc/articles/PMC1482963/
  Gene that modulates bacterial susceptibility to the AMP: lpxE
[1]; Klebsiella pneumoniae, ref http://iai.asm.org/content/72/12/7107.full.pdf+html
  Gene that modulates bacterial susceptibility to the AMP: cps
[1]; Klebsiella pneumoniae, ref http://jac.oxfordjournals.org/content/70/1/75.full.pdf+html, http://embomolmed.embopress.org/content/9/4/430.long
  Gene that modulates bacterial susceptibility to the AMP: mgrB
[1]; Klebsiella pneumoniae, ref http://www.ncbi.nlm.nih.gov/pmc/articles/PMC2798511/
  Gene that modulates bacterial susceptibility to the AMP: acrB
[1]; Neisseria meningitidis, Neisseria gonorrhoeae, ref http://www.ncbi.nlm.nih.gov/pmc/articles/PMC1196002/
  Gene that modulates bacterial susceptibility to the AMP: mtrC, mtrD, mtrE
[1]; Neisseria meningitidis, ref https://www.ncbi.nlm.nih.gov/pmc/articles/PMC1196002/
  Gene that modulates bacterial susceptibility to the AMP: lptA
[1]; Neisseria meningitidis, ref https://www.ncbi.nlm.nih.gov/pmc/articles/PMC1196002/pdf/0005-05.pdf
  Gene that modulates bacterial susceptibility to the AMP: lpxL1
[1]; Parasutterella excrementihominis, ref https://utmb.influuent.utsystem.edu/en/publications/quorum-sensing-escherichia-coli-regulators-b-and-c-qsebc-a-novel-
  Gene that modulates bacterial susceptibility to the AMP: qseB (pmrA)
[1]; Porphyromonas gingivalis, ref https://www.nature.com/articles/ijos200918.pdf?origin=ppub, https://www.ncbi.nlm.nih.gov/pmc/articles/PMC4388331/pdf/nihms-656041.pdf
  Gene that modulates bacterial susceptibility to the AMP: lpxF
[1]; Pseudomonas aeruginosa, Salmonella typhimurium, Escherichia coli, ref http://www.sciencemag.org/content/286/5444/1561.full.pdf, http://onlinelibrary.wiley.com/doi/10.1111/j.1365-2958.1995.tb02299.x/abstract, http://www.ncbi.nlm.nih.gov/pmc/articles/PMC50673/pdf/pnas01098-0300.pdf, https://jb.asm.org/content/jb/182/14/4077.full.pdf
  Gene that modulates bacterial susceptibility to the AMP: phoP (PhoPQ)
[1]; Pseudomonas aeruginosa, gene colR (ColRS), ref https://www.ncbi.nlm.nih.gov/pmc/articles/PMC4244539/pdf/fmicb-05-00643.pdf, http://aac.asm.org/content/57/5/2204.full.pdf+html
  Gene that modulates bacterial susceptibility to the AMP: colR (ColRS)
[1]; Pseudomonas aeruginosa, gene cprR (CprRS), ref https://www.ncbi.nlm.nih.gov/pmc/articles/PMC4244539/pdf/fmicb-05-00643.pdf, http://aac.asm.org/content/57/5/2204.full.pdf+html
  Gene that modulates bacterial susceptibility to the AMP: cprR (CprRS)
[1]; Pseudomonas aeruginosa, ref http://aac.asm.org/content/54/8/3372.full.pdf+html, http://aac.asm.org/content/56/12/6212.full.pdf+html, http://aac.asm.org/content/57/5/2204.full.pdf+html
  Gene that modulates bacterial susceptibility to the AMP: parR (ParR-ParS)
[1]; Pseudomonas aeruginosa, ref http://jb.asm.org/content/186/2/575.long
  Gene that modulates bacterial susceptibility to the AMP: pmrB
[1]; Salmonella enterica serovar Typhimurium, ref http://www.jbc.org/content/279/37/38618.long, https://onlinelibrary.wiley.com/doi/epdf/10.1111/j.1365-2958.2005.04553.x
  Gene that modulates bacterial susceptibility to the AMP: slyA
[1]; Salmonella enterica serovar Typhimurium, ref http://www.jbc.org/content/279/37/38618.long
  Gene that modulates bacterial susceptibility to the AMP: ugtL
[1]; Salmonella enterica serovar Typhimurium, ref http://www.microbiologyresearch.org/docserver/fulltext/micro/154/2/666.pdf?expires=1487718158&id=id&accname=guest&checksum=D8B884D02A8B2A8619216A48E0826377
  Gene that modulates bacterial susceptibility to the AMP: yejA
[1]; Salmonella sp., ref https://www.ncbi.nlm.nih.gov/pmc/articles/PMC2904496/
  Gene that modulates bacterial susceptibility to the AMP: eptA
[1]; Salmonella typhimurium, Escherichia coli, ref https://www.ncbi.nlm.nih.gov/pmc/articles/PMC3037666/, https://www.ncbi.nlm.nih.gov/pmc/articles/PMC3837802/pdf/zam7770.pdf
  Gene that modulates bacterial susceptibility to the AMP: cpxA (CpxA/CpxR)
[1]; Salmonella typhimurium, gene pmrF (arnT operon), ref http://www.jbc.org/content/287/46/38778.full.pdf
  Gene that modulates bacterial susceptibility to the AMP: pmrF (arnT operon)
[1]; Salmonella typhimurium, gene yfbG (arnA), ref http://www.jbc.org/content/287/46/38778.full.pdf
  Gene that modulates bacterial susceptibility to the AMP: yfbG (arnA)
[1]; Salmonella typhimurium, ref https://www.ncbi.nlm.nih.gov/pmc/articles/PMC205548/pdf/jbacter00030-0157.pdf
  Gene that modulates bacterial susceptibility to the AMP: pmrD
[1]; Staphylococcus aureus, ref http://aac.asm.org/content/51/8/2679.full.pdf+html
  Gene that modulates bacterial susceptibility to the AMP: graR(GraRS)
[1]; Vibrio cholerae, ref http://pubs.acs.org/doi/pdf/10.1021/cb500438x
  Gene that modulates bacterial susceptibility to the AMP: almE, almF, almG
[1]; Yersinia sp., ref http://www.helsinki.fi/yersinia/pdf_own/Bengo_MolMic_2000_37_67.pdf
  Gene that modulates bacterial susceptibility to the AMP: rosA
[1]
  Gene that modulates bacterial susceptibility to the AMP: rcp (pagP) and pmm and bveA (BMEII0681)
[1]; pathogenic or commensal Enterobacteriaceae species, gene rcsB, ref https://www.ncbi.nlm.nih.gov/pmc/articles/PMC2895427/pdf/nihms212407.pdf
  Gene that modulates bacterial susceptibility to the AMP: rcsB
[1]; pathogenic or commensal Enterobacteriaceae species, gene rcsC, ref https://www.ncbi.nlm.nih.gov/pmc/articles/PMC2895427/pdf/nihms212407.pdf
  Gene that modulates bacterial susceptibility to the AMP: rcsC
[1]; pathogenic or commensal Enterobacteriaceae species, gene rcsD, ref https://www.ncbi.nlm.nih.gov/pmc/articles/PMC2895427/pdf/nihms212407.pdf
  Gene that modulates bacterial susceptibility to the AMP: rcsD
[2]; overexpression strain gadW
  Relative MIC: 0.7
[2]; overexpression strain lptB
  Relative MIC: 0.7
[2]; overexpression strain mzrA
  Relative MIC: 0.66
[2]; overexpression strain nikB
  Relative MIC: 1
